One may read the IC50 as the concentration needed to halve the response being measured.

Data on eleven compounds can be found in US12643896B2, “Dicyclopropylmethyl derivatives as IL-17 modulators” (UCB Biopharma SRL, priority 2020, dated 2026).

This test deals with T1, IL-17A (Homo sapiens, UniProt Q16552).
T1 sequence (Q16552 24-155): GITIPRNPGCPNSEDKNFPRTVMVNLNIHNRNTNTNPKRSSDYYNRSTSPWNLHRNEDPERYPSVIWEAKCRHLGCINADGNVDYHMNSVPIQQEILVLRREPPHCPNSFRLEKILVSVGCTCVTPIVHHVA
Kind of test: Inhibition of IL-17A induced IL-6 release from dermal fibroblast cell line (HDF cell line assay). Conditions: human dermal fibroblasts (HDF) stimulated with IL-17A 50 pM + TNF-α 25 pM; IL-6 measured by HTRF; pIC50 = −log10[IC50], IC50 molar. The test is classed as cell-based. An excerpt: Inhibition of IL-17A Induced IL-6 Release from Dermal Fibroblast Cell Line
The purpose of this assay is to test the neutralising ability to IL-17 proteins, in a human primary cell system. Stimulation of normal human dermal fibroblasts (HDF) with IL-17 alone produces only a very weak signal but in combination with certain other cytokines, such as TNFα, a synergistic effect can be seen in the production of inflammatory cytokines, i.e. IL-6.
HDFs were stimulated with IL-17A (50 pM) in combination with TNF-α (25 pM). The resultant IL-6 response was then measured using a homogenous time-resolved FRET kit from Cisbio. The kit utilises two monoclonal antibodies, one labelled with Eu-Cryptate (Donor) and the second with d2 or XL665 (Acceptor). The intensity of the signal is proportional to the concentration of IL-6 present in the sample (Ratio is calculated by 665/620×104).
The ability of a compound to inhibit IL-17 induced IL-6 release from human dermal fibroblasts is measured in this assay.
HDF cells (Sigma #106-05n) were cultured in complete media (DMEM+10% FCS+2 mM L-glutamine) and maintained in a tissue culture flask using standard techniques. Cells were harvested from the tissue culture flask on the morning of the assay using TrypLE (Invitrogen #12605036). The TrypLE was neutralised using complete medium (45 mL) and the cells were centrifuged at 300×g for 3 minutes. The cells were re-suspended in complete media (5 mL) counted and adjusted to a concentration of 3.125×10^4 cells/mL before being added to the 384 well assay plate (Corning #3701) at 40 μL per well. The cells were left for a minimum of three hours, at 37° C./5% CO2, to adhere to the plate.
Compounds were serially diluted in DMSO before receiving an aqueous dilution into a 384 well dilution plate (Greiner #781281), where 5 μL from the titration plate was transferred to 45 μL of complete media and mixed to give a solution containing 10% DMSO.
Mixtures of TNFα and IL-17 cytokine were prepared in complete media to final concentrations of TNFα 25 pM/IL-17A 50 pM, then 30 μL of the solution was added to a 384 well reagent plate (Greiner #781281).
10 μL from the aqueous dilution plate was transferred to the reagent plate containing 30 μL of the diluted cytokines, to give a 2.5% DMSO solution. The compounds were incubated with the cytokine mixtures for 5 h at 37° C. After the incubation, 10 μL was transferred to the assay plate, to give a 0.5% DMSO solution, then incubated for 18-20 h at 37° C./5% CO2.
From the Cisbio IL-6 FRET kit (Cisbio #62IL6PEB) europium cryptate and Alexa 665 were diluted in reconstitution buffer and mixed 1:1, as per kit insert. To a white low volume 384 well plate (Greiner #784075) were added FRET reagents (10 μL), then supernatant (10 μL) was transferred from the assay plate to Greiner reagent plate. The mixture was incubated at room temperature for 3 h with gentle shaking (<400 rpm) before being read on a Synergy Neo 2 plate reader (Excitation: 330 nm; Emission: […]).
Turning to `Cc1nonc1C(=O)N[C@H](c1nc2nc([C@@H]3CC(F)(F)CCN3C(=O)C34CC(F)(C3)C4)ccc2[nH]1)C(C1CC1)C1CC1` (single isomer, unassigned) [Example 6], the IC50 was 12.6 nM.

For the compound `Cc1nonc1C(=O)N[C@H](c1nc2nc([C@H]3C[C@](O)(C(F)(F)F)CCN3C(=O)C34CC(F)(C3)C4)ccc2[nH]1)C(C1CC1)C1CC1` (single isomer, unassigned) [Example 7], the IC50 was 2510 nM.

On to `Cc1nonc1C(=O)N[C@@H](c1nc2nc([C@@H]3CC(F)(F)CCN3C(=O)C34CC(F)(C3)C4)ccc2[nH]1)C(C1CC1)C1CC1` (single isomer, unassigned) [Example 4], for which the IC50 was 3160 nM.

As to `Cc1nonc1C(=O)N[C@@H](c1nc2nc([C@H]3C[C@](O)(C(F)(F)F)CCN3C(=O)C34CC(F)(C3)C4)ccc2[nH]1)C(C1CC1)C1CC1` (single isomer, unassigned) [Example 9], the IC50 is over 10000 nM.

In the case of `O=C(N1CCC(F)(F)CC1c1ccc2[nH]c(C(NC(=O)C3(C(F)(F)F)CC3)C(C3CC3)C3CC3)nc2n1)C12CC(F)(C1)C2` (centres unmarked) [Example 1, N-(2,2-Dicyclopropyl-1-{5-[4,4-difluoro-1-(3-fluorobicyclo[1.1.1]pentane-1-carbonyl)-piperidin-2-yl]-1H-imidazo[4,5-b]pyridin-2-yl}ethyl)-1-(trifluoromethyl)cyclopropane-carboxamide], the IC50 is 63.1 nM.

On to `Cc1nonc1C(=O)N[C@H](c1nc2nc([C@@H]3C[C@@](O)(C(F)(F)F)CCN3C(=O)C34CC(F)(C3)C4)ccc2[nH]1)C(C1CC1)C1CC1` (single isomer, unassigned) [Example 8], for which the IC50 is 7.94 nM.

For the compound `O=C(N[C@H](c1nc2nc([C@@H]3C[C@@](O)(C(F)F)CCN3C(=O)C34CC(F)(C3)C4)ccc2[nH]1)C(C1CC1)C1CC1)C1(F)CC1` (single isomer, unassigned) [Example 11], the IC50 is 5.01 nM.

With `Cc1nonc1C(=O)N[C@@H](c1nc2nc([C@H]3CC(F)(F)CCN3C(=O)C34CC(F)(C3)C4)ccc2[nH]1)C(C1CC1)C1CC1` (single isomer, unassigned) [Example 3], the IC50 is 15800 nM.

Take `O=C(N[C@H](c1nc2nc([C@H]3C[C@](O)(C(F)F)CCN3C(=O)C34CC(F)(C3)C4)ccc2[nH]1)C(C1CC1)C1CC1)C1(F)CC1` (single isomer, unassigned) [Example 12]: the IC50 is 794 nM.

As for `Cc1nonc1C(=O)NC(c1nc2nc(C3CC(F)(F)CCN3C(=O)C34CC(F)(C3)C4)ccc2[nH]1)C(C1CC1)C1CC1` (centres unmarked) [Example 2, N-(2,2-Dicyclopropyl-1-{5-[4,4-difluoro-1-(3-fluorobicyclo[1.1.1]pentane-1-carbonyl)-piperidin-2-yl]-1H-imidazo[4,5-b]pyridin-2-yl}ethyl)-4-methyl-1,2,5-oxadiazole-3-carboxamide], the IC50 was 63.1 nM.

Consider `Cc1nonc1C(=O)N[C@H](c1nc2nc([C@H]3CC(F)(F)CCN3C(=O)C34CC(F)(C3)C4)ccc2[nH]1)C(C1CC1)C1CC1` (single isomer, unassigned) [Example 5], for which the IC50 was 398 nM.
